Assay: Assay for determination of apparent permeability (Papp), bi-directional transport
Conditions: pig, LLC-PK1

With `CNC1=N[C@@H]2[C@@H](O)[C@H](O)[C@@H]([C@@H](OCc3ccc(OC)cc3)C(F)(F)F)O[C@@H]2S1` [Example 97, 2-(methylamino)-5-(2,2,2-trifluoro-1-(4-methoxybenzyloxy)ethyl)-5,6,7,7a-tetrahydro-3aH-pyrano[3,2-d]thiazole-6,7-diol] the Papp at 3 h, 1 μM was 24.7 ×10⁻⁶ cm/s.
For `CCO[C@@H]([C@H]1O[C@@H]2SC(N(C)C)=N[C@@H]2[C@@H](O)[C@@H]1O)C(F)(F)F` [Example 22, (3aR,5S,6S,7R,7aR)-2-(dimethylamino)-5-((S)-1-ethoxy-2,2,2-trifluoroethyl)-5,6,7,7a-tetrahydro-3aH-pyrano[3,2-d]thiazole-6,7-diol], the Papp at 3 h, 1 μM was 27.2 ×10⁻⁶ cm/s.
Compound `CCN(C)C1=N[C@@H]2[C@@H](O)[C@H](O)[C@@H]([C@H](OC)C(F)(F)F)O[C@@H]2S1` [Example 72, (3aR,5S,6S,7R,7aR)-2-(ethyl(methyl)amino)-5-((S)-2,2,2-trifluoro-1-methoxyethyl)-5,6,7,7a-tetrahydro-3aH-pyrano[3,2-d]thiazole-6,7-diol] has a Papp at 3 h, 1 μM of 25.4 ×10⁻⁶ cm/s.
Work on `COc1ccccc1CO[C@H]([C@H]1O[C@@H]2SC(N(C)C)=N[C@@H]2[C@@H](O)[C@@H]1O)C(F)(F)F` [Example 50, (3aR,5S,6S,7R,7aR)-2-(dimethylamino)-5-((R)-2,2,2-trifluoro-1-(2-methoxybenzyloxy)ethyl)-5,6,7,7a-tetrahydro-3aH-pyrano[3,2-d]thiazole-6,7-diol] yielded a Papp at 3 h, 1 μM of 31.5 ×10⁻⁶ cm/s.
In the case of `CNC1=N[C@@H]2[C@@H](O)[C@H](O)[C@@H]([C@@H](OCc3ccc(C(F)(F)F)cc3)C(F)(F)F)O[C@@H]2S1` [Example 94, (3aR,5S,6S,7R,7aR)-2-(mcthylamino)-5-((R)-2,2,2-trifluoro-1-(4-(trifluoromethyl)benzyloxy)ethyl)-5,6,7,7a-tetrahydro-3aH-pyrano[3,2-d]thiazole-6,7-diol], the Papp at 3 h, 1 μM is reported as 24.6 ×10⁻⁶ cm/s.
For `CCc1cc(CO[C@H]([C@H]2O[C@@H]3SC(NC)=N[C@@H]3[C@@H](O)[C@@H]2O)C(F)(F)F)ccc1OC` [Example 100, (3aR,5S,6S,7R,7aR)-5-((R)-1-(3-ethyl-4-methoxybenzyloxy)-2,2,2-trifluoroethyl)-2-(methylamino)-5,6,7,7a-tetrahydro-3aH-pyrano[3,2-d]thiazole-6,7-diol], the Papp at 3 h, 1 μM was 28.1 ×10⁻⁶ cm/s.
Compound `CN(C)C1=N[C@@H]2[C@@H](O)[C@H](O)[C@@H]([C@@H](OCc3ccccc3C(F)(F)F)C(F)(F)F)O[C@@H]2S1` [Example 68, (3aR,5S,6S,7R,7aR)-2-(dimethylamino)-5-((R)-2,2,2-trifluoro-1-(2-(trifluoromethyl)benzyloxy)ethyl)-5,6,7,7a-tetrahydro-3aH-pyrano[3,2-d]thiazole-6,7-diol] has a Papp at 3 h, 1 μM of 34.1 ×10⁻⁶ cm/s.
Work on `COc1cccc(CO[C@H]([C@H]2O[C@@H]3SC(N(C)C)=N[C@@H]3[C@@H](O)[C@@H]2O)C(F)(F)F)c1` [Example 51, (3aR,5S,6S,7R,7aR)-2-(dimethylamino)-5-((R)-2,2,2-trifluoro-1-(3-methoxybenzyloxy)ethyl)-5,6,7,7a-tetrahydro-3aH-pyrano[3,2-d]thiazole-6,7-diol] yielded a Papp at 3 h, 1 μM of 30.9 ×10⁻⁶ cm/s.
Compound `CN(C)C1=N[C@@H]2[C@@H](O)[C@H](O)[C@@H]([C@@H](OCCCF)C(F)(F)F)O[C@@H]2S1` [Example 29, (3aR,5S,6S,7R,7aR)-2-(dimethylamino)-5-((R)-2,2,2-trifluoro-1-(3-fluoropropoxy)ethyl)-5,6,7,7a-tetrahydro-3aH-pyrano[3,2-d]thiazole-6,7-diol] has a Papp at 3 h, 1 μM of 20.9 ×10⁻⁶ cm/s.
With `CN(C)C1=N[C@@H]2[C@@H](O)[C@H](O)[C@@H]([C@@H](OCc3cccc(C(F)(F)F)c3)C(F)(F)F)O[C@@H]2S1` [Example 67, (3aR,5S,6S,7R,7aR)-2-(dimethylamino)-5-((R)-2,2,2-trifluoro-1-(3-(trifluoromethyl)benzyloxy)ethyl)-5,6,7,7a-tetrahydro-3aH-pyrano[3,2-d]thiazole-6,7-diol] the Papp at 3 h, 1 μM was 29.5 ×10⁻⁶ cm/s.
In the case of `CO[C@@](C)([C@H]1O[C@@H]2SC(N(C)C)=N[C@@H]2[C@@H](O)[C@@H]1O)C(F)(F)F` (single isomer, unassigned) [Example 74], the Papp at 3 h, 1 μM is reported as 24.5 ×10⁻⁶ cm/s.
Compound `CN(C)C1=N[C@@H]2[C@@H](O)[C@H](O)[C@@H]([C@@H](OCc3ccc(CF)cc3)C(F)(F)F)O[C@@H]2S1` [Example 69, (3aR,5S,6S,7R,7aR)-2-(dimethylamino)-5-((R)-2,2,2-trifluoro-1-(4-(fluoromethyl)benzyloxy)ethyl)-5,6,7,7a-tetrahydro-3aH-pyrano[3,2-d]thiazole-6,7-diol] has a Papp at 3 h, 1 μM of 31.1 ×10⁻⁶ cm/s.
With `CN(C)C1=N[C@@H]2[C@@H](O)[C@H](O)[C@@H]([C@H](OCc3cccc(F)c3)C(F)(F)F)O[C@@H]2S1` [Example 63, (3aR,5S,6S,7R,7aR)-2-(dimethylamino)-5-((S)-2,2,2-trifluoro-1-(3-fluorobenzyloxy)ethyl)-5,6,7,7a-tetrahydro-3aH-pyrano[3,2-d]thiazole-6,7-diol] the Papp at 3 h, 1 μM was 31.2 ×10⁻⁶ cm/s.
Work on `COc1c(C)cc(CO[C@H]([C@H]2O[C@@H]3SC(N(C)C)=N[C@@H]3[C@@H](O)[C@@H]2O)C(F)(F)F)cc1C` [Example 60, (3aR,5S,6S,7R,7aR)-2-(dimethylamino)-5-((R)-2,2,2-trifluoro-1-(4-methoxy-3,5-dimethylbenzyloxy)ethyl)-5,6,7,7a-tetrahydro-3aH-pyrano[3,2-d]thiazole-6,7-diol] yielded a Papp at 3 h, 1 μM of 29 ×10⁻⁶ cm/s.
Work on `CCc1ccc(CO[C@H]([C@H]2O[C@@H]3SC(N(C)C)=N[C@@H]3[C@@H](O)[C@@H]2O)C(F)(F)F)cc1` [Example 41, (3aR,5S,6S,7R,7aR)-2-(dimethylamino)-5-((R)-1-(4-ethylbenzyloxy)-2,2,2-trifluoroethyl)-5,6,7,7a-tetrahydro-3aH-pyrano[3,2-d]thiazole-6,7-diol] yielded a Papp at 3 h, 1 μM of 30.7 ×10⁻⁶ cm/s.
With `CCc1ccc(CO[C@H]([C@H]2O[C@@H]3SC(NC)=N[C@@H]3[C@@H](O)[C@@H]2O)C(F)(F)F)cc1` [Example 86, (3aR,5S,6S,7R,7aR)-5-((R)-1-(4-ethylbenzyloxy)-2,2,2-trifluoroethyl)-2-(methylamino)-5,6,7,7a-tetrahydro-3aH-pyrano[3,2-d]thiazole-6,7-diol] the Papp at 3 h, 1 μM was 29.9 ×10⁻⁶ cm/s.
With `CCCCO[C@H]([C@H]1O[C@@H]2SC(N(C)C)=N[C@@H]2[C@@H](O)[C@@H]1O)C(F)(F)F` [Example 26, (3aR,5S,6S,7R,7aR)-5-((R)-1-butoxy-2,2,2-trifluoroethyl)-2-(dimethylamino)-5,6,7,7a-tetrahydro-3aH-pyrano[3,2-d]thiazole-6,7-diol] the Papp at 3 h, 1 μM was 30.8 ×10⁻⁶ cm/s.
`CNC1=N[C@@H]2[C@@H](O)[C@H](O)[C@@H]([C@@H](OCc3cc(C)c(OC)c(C)c3)C(F)(F)F)O[C@@H]2S1` [Example 101, (3aR,5S,6S,7R,7aR)-2-(methylamino)-5-((R)-2,2,2-trifluoro-1-(4-methoxy-3,5-dimethylbenzyloxy)ethyl)-5,6,7,7a-tetrahydro-3aH-pyrano[3,2-d]thiazole-6,7-diol] gave a Papp at 3 h, 1 μM of 28.9 ×10⁻⁶ cm/s.
With `C[C@H](O[C@H]([C@H]1O[C@@H]2SC(N(C)C)=N[C@@H]2[C@@H](O)[C@@H]1O)C(F)(F)F)c1ccccc1` [Example 47, (3aR,5S,6S,7R,7aR)-2-(dimethylamino)-5-((R)-2,2,2-trifluoro-1-((S)-1-phenylethoxy)ethyl)-5,6,7,7a-tetrahydro-3aH-pyrano[3,2-d]thiazole-6,7-diol] the Papp at 3 h, 1 μM was 34 ×10⁻⁶ cm/s.
